For 17 compounds, IC50 results are on record in patent US9732104B2, “Ether compounds for treatment of complement mediated disorders” (Achillion Pharmaceuticals, Inc., priority 2014, dated 2017).

For orientation: IC50 means the concentration that inhibits the measured activity by half. Higher therefore signals lower potency.

The target in the test is Human factor D (Homo sapiens (Human), UniProt P00746). Briefly: Human Factor D Assay. The class given is biochemical. The note with it: Human factor D purified from human serum, 80 nM; substrate Z-L-Lys-SBzl with DTNB; assay of Example 8. The protocol: The assay of Example 8 was used to determine the IC50's of the compounds. Other standard factor D inhibition assays are also available.
Chain of Human factor D (P00746 26-253): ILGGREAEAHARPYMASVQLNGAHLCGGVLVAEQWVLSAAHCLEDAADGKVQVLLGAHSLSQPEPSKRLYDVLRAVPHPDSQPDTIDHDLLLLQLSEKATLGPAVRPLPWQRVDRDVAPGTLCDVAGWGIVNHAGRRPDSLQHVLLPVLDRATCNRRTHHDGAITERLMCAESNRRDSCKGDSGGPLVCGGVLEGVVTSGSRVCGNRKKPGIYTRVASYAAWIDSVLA
Example 8. Human Factor D Assay
Human factor D (purified from human serum, Complement Technology, Inc.) at 80 nM final concentration is incubated with test compound at various concentrations for 5 minutes at room temperature in 50 mM Tris, 1M NaCl, pH 7.5. A synthetic substrate Z-L-Lys-SBzl and DTNB (Ellman's reagent) are added to final concentrations of 100 µM each. The increase in color is recorded at OD405 nm in a microplate in kinetic mode over 30 minutes with 30 second time points in a […]. IC50 values are calculated by non-linear regression from the percentage of inhibition of complement factor D activity as a function of test compound concentration.
Take `CC(=O)c1cn(CC(=O)N2C[C@H](F)C[C@H]2C(=O)Nc2ccc(OC(F)(F)F)c(F)c2)c2cc(OCP(=O)(O)O)ccc12` [Compound 25, (3-acetyl-1-(2-((2S,4R)-4-fluoro-2-(3-fluoro-4-(trifluoromethoxy)phen-ylcarbamoyl)pyrrolidin-1-yl)-2-oxoethyl)-1H-indol-6-yloxy)methylphosphonic acid]: the IC50 was less than 1000 nM.
As for `CC(=O)c1cn(CC(=O)N2C[C@H](F)C[C@H]2C(=O)Nc2cccc(-c3ccccc3Cl)c2F)c2ccc(Oc3ncc(Br)cn3)cc12` [Compound 33, (2S,4R)-1-(2-(3-acetyl-5-(5-bromopyrimidin-2-yloxy)-1H-indol-1-yl)acetyl)-N-(2′-chloro-2-fluorobiphenyl-3-yl)-4-fluoropyrrolidine-2-carboxamide], the half-maximal inhibitory concentration (IC50) is less than 1000 nM.
The result for `CC(=O)c1cn(CC(=O)N2C[C@H](F)C[C@H]2C(=O)Nc2cccc(Br)n2)c2ccc(Oc3ncc(C)cn3)cc12` [Compound 41, (2S,4R)-1-(2-(3-acetyl-5-(5-methylpyrimidin-2-yloxy)-1H-indol-1-yl)acetyl)-N-(6-bromopyridin-2-yl)-4-fluoropyrrolidine-2-carboxamide] reads less than 1000 nM; that for `CC(=O)c1cn(CC(=O)N2[C@@H]3C[C@@H]3C[C@H]2C(=O)NCc2cccc(Cl)c2F)c2cc(OCC3CC3)ccc12` [Compound 3, (1R,3S,5R)-2-(2-(3-acetyl-6-(cyclopropylmethoxy)-1H-indol-1-yl)acetyl)-N-(3-chloro-2-fluorobenzyl)-2-azabicyclo[3.1.0]hexane-3-carboxamide], less than 1000 nM.
Next, `CCOP(=O)(COc1ccc2c(C(C)=O)cn(CC(=O)N3C[C@H](F)C[C@H]3C(=O)N[C@H](C)c3cccc(Cl)c3F)c2c1)OCC` [Compound 18, diethyl (3-acetyl-1-(2-((2S,4R)-2-((R)-1-(3-chloro-2-fluorophen-yl)ethylcarbamoyl)-4-fluoropyrrolidin-1-yl)-2-oxoethyl)-1H-indol-6-yloxy)methylphosphonate]: less than 1000 nM; `CC(=O)c1cn(CC(=O)N2C[C@H](F)C[C@H]2C(=O)NCc2cccc(Cl)c2F)c2ccc(OS(=O)(=O)C(F)(F)F)cc12` [Compound 9, 3-acetyl-1-(2-((2S,4R)-2-(3-chloro-2-fluorobenzylcarbamoyl)-4-fluoropyrrolidin-1-yl)-2-oxoethyl)-1H-indol-5-yl trifluoromethanesulfonate]: less than 1000 nM.
Next, `CC(=O)c1cn(CC(=O)N2C[C@H](F)C[C@H]2C(=O)Nc2cccc(-c3ccccc3Cl)c2F)c2cc(Oc3ncccn3)ccc12` [Compound 32, (2S,4R)-1-(2-(3-acetyl-6-(pyrimidin-2-yloxy)-1H-indol-1-yl)acetyl)-N-(2′-chloro-2-fluorobiphenyl-3-yl)-4-fluoropyrrolidine-2-carboxamide]: less than 1000 nM.
Turning to `CCC(=O)OC(OP(=O)(COc1ccc2c(C(C)=O)cn(CC(=O)N3C[C@H](F)C[C@H]3C(=O)NCc3cccc(Cl)c3F)c2c1)OC(OC(=O)CC)C(C)C)C(C)C` (stereo partly drawn) [Compound 23, 1,1′-(((3-acetyl-1-(2-((2S,4R)-2-(3-chloro-2-fluorobenzylcarbamoyl)-4-fluoropyrrolidin-1-yl)-2-oxoethyl)-1H-indol-6-yloxy)methyl)phosph-oryl)bis(oxy)bis(2-methylpropane-1,1-diyl) dipropionate], the half-maximal inhibitory concentration (IC50) was less than 1000 nM.
Turning to `CC(=O)c1cn(CC(=O)N2C[C@H](F)C[C@H]2C(=O)NCc2cccc(Cl)c2F)c2cc(OCP(=O)(O)O)ccc12` [Compound 8, (3-acetyl-1-(2-((2S,4R)-2-(3-chloro-2-fluorobenzylcarbamoyl)-4-fluoropyrrolidin-1-yl)-2-oxoethyl)-1H-indol-6-yloxy)methylphosphonic acid], the IC50 was less than 1000 nM.
The result for `NC(=O)c1nn(CC(=O)N2C[C@H](F)C[C@H]2C(=O)Nc2cccc(-c3ccccc3Cl)c2F)c2cc(OCS(N)(=O)=O)ccc12` [Compound 29, 1-(2-((2S,4R)-2-(2′-chloro-2-fluorobiphenyl-3-ylcarbamoyl)-4-fluoropyrrolidin-1-yl)-2-oxoethyl)-6-(sulfamoylmethoxy)-1H-indazole-3-carboxamide] reads less than 1000 nM.
Next, `CC(=O)c1cn(CC(=O)N2C[C@H](F)C[C@H]2C(=O)Nc2cccc(-c3ccccc3Cl)c2F)c2ccc(Oc3ncc(C)cn3)cc12` [Compound 40, (2S,4R)-1-(2-(3-acetyl-5-(5-methylpyrimidin-2-yloxy)-1H-indol-1-yl)acetyl)-N-(2′-chloro-2-fluorobiphenyl-3-yl)-4-fluoropyrrolidine-2-carboxamide]: less than 1000 nM; `CCP(=O)(O)COc1ccc2c(C(C)=O)cn(CC(=O)N3C[C@H](F)C[C@H]3C(=O)NCc3cccc(Cl)c3F)c2c1` [Compound 16, (3-acetyl-1-(2-((2S,4R)-2-(3-chloro-2-fluorobenzylcarbamoyl)-4-fluoropyrrolidin-1-yl)-2-oxoethyl)-1H-indol-6-yloxy)methyl(eth-yl)phosphinic acid]: less than 1000 nM; `CC(=O)c1cn(CC(=O)N2C[C@H](F)C[C@H]2C(=O)N[C@H](C)c2cccc(Cl)c2F)c2cc(OCP(=O)(O)O)ccc12` [Compound 19, (3-acetyl-1-(2-((2S,4R)-2-((R)-1-(3-chloro-2-fluorophenyl)ethyl-carbamoyl)-4-fluoropyrrolidin-1-yl)-2-oxoethyl)-1H-indol-6-yloxy)methylphosphonic acid]: less than 1000 nM.
Next, `CC(=O)c1cn(CC(=O)N2C[C@H](F)C[C@H]2C(=O)Nc2cccc(Oc3ccccc3)c2)c2cc(OCP(=O)(O)O)ccc12` [Compound 26, (3-acetyl-1-(2-((2S,4R)-4-fluoro-2-(3-phenoxy-phenylcarbamoyl)pyrrolidin-1-yl)-2-oxoethyl)-1H-indol-6-yloxy)methylphosphonic acid]: less than 1000 nM; `CC(=O)c1cn(CC(=O)N2C[C@H](F)C[C@H]2C(=O)Nc2cccc(OC(F)(F)F)c2F)c2cc(OCC3CC3)ccc12` [Compound 4, (2S,4R)-1-(2-(3-acetyl-6-(cyclopropylmethoxy)-1H-indol-1-yl)acetyl)-4-fluoro-N-(2-fluoro-3-(trifluoromethoxy)phen-yl)pyrrolidine-2-carboxamide]: less than 1000 nM; `CC(=O)c1cn(CC(=O)N2C[C@H](F)C[C@H]2C(=O)Nc2cccc(-c3ccccc3Cl)c2F)c2ccc(Oc3ncccn3)cc12` [Compound 38, (2S,4R)-1-(2-(3-acetyl-5-(pyrimidin-2-yloxy)-1H-indol-1-yl)acetyl)-N-(2′-chloro-2-fluorobiphenyl-3-yl)-4-fluoropyrrolidine-2-carboxamide]: less than 1000 nM.
In turn, `CC(=O)c1cn(CC(=O)N2C[C@H](F)C[C@H]2C(=O)NCc2cccc(Cl)c2F)c2cc(OCP(=O)(O)OCOC(=O)OC(C)C)ccc12` [Compound 13, (((3-acetyl-1-(2-((2S,4R)-2-(3-chloro-2-fluorobenzylcarbamoyl)-4-fluoropyrrolidin-1-yl)-2-oxoethyl)-1H-indol-6-yloxy)methyl)(hydro-xy)phosphoryloxy)meth-yl isopropyl carbonate] yielded an IC50 of less than 1000 nM.
